Measurements published in article PMC5239439, “Virtual screening, optimization, and identification of a novel specific PTP-MEG2 Inhibitor with potential therapy for T2DM” (Oncotarget, 2016).
Like-named read-outs stand apart in the source and are kept apart here.

How the values were obtained:
Type in all cases: biochemical
TCPTP = molecular target: T1, TCPTP (Homo sapiens, UniProt P17706); assay: Enzymatic assay with pNPP as substrate, TCPTP
T1 construct: host or cells: E. coli
T1 sequence (P17706 1-415): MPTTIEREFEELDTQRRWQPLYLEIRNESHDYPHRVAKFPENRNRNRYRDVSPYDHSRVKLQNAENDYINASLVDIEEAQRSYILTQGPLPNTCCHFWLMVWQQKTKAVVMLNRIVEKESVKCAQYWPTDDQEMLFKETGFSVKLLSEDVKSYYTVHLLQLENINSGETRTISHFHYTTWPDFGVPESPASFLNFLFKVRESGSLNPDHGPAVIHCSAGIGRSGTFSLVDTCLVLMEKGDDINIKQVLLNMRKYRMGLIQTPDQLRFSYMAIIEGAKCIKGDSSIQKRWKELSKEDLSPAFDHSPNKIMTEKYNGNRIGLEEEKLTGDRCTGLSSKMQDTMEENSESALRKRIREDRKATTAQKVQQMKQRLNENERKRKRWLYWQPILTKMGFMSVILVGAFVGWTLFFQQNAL
Procedure: (§1) Briefly, pNPP was hydrolyzed by PTPs to give para-nitrophenol. Para-nitrophenol converts into para-nitrophenolate (pNP), measured with a spectrophotometer after stopping solution was added. The regents and chemicals used in this assay are as follows: Ni-NTA labeled human recombinant PTPs expressed in E coli; de-phosphorylation assay buffer (50 mM citrate (pH 6.0), 0.1 M NaCl, 1 mM EDTA and 1 mM dithiothreitol (DTT)); substrate (2 mM pNPP) in assay buffer; stopping solution (0.2 M sodium hydroxide). PTPs and test-compounds with geometrically increasing concentrations were mixed in 50 μL buffer in each well of a 96-well plate. An equivalent volume of buffer without PTPs was used as blank control. After pre-incubation for 15 min at room temperature, the substrate (50 μL) was added into each well and incubated at 37°C for 30 min. Stopping buffer was poured into each well on ice and the OD value was read at 405 nm against blank.

PTP1B = molecular target: T2, PTP1B (Homo sapiens, UniProt P18031); assay: Enzymatic assay with pNPP as substrate, PTP1B; details: pH 6.0, 37°C 30 min
T2 construct: host or cells: E. coli
T2 sequence (P18031 1-435): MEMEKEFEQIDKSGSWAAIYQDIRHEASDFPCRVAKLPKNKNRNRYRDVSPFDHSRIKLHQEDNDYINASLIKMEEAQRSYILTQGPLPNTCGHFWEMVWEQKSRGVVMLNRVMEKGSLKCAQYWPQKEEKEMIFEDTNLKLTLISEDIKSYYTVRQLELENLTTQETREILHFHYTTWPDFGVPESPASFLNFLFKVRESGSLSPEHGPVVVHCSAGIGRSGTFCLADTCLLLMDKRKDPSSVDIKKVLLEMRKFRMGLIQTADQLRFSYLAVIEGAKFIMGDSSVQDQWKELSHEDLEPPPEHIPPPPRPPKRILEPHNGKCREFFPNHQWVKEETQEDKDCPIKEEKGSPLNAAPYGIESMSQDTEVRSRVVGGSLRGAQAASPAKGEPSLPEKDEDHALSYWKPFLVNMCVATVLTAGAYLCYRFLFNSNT
Procedure: as §1

PTP-MEG2 = molecular target: T3, PTP-MEG2 (Homo sapiens, UniProt P43378); assay: Enzymatic assay with pNPP as substrate, PTP-MEG2; details: pH 6.0, 37°C 30 min
T3 construct: host or cells: E. coli
T3 sequence (P43378 1-593): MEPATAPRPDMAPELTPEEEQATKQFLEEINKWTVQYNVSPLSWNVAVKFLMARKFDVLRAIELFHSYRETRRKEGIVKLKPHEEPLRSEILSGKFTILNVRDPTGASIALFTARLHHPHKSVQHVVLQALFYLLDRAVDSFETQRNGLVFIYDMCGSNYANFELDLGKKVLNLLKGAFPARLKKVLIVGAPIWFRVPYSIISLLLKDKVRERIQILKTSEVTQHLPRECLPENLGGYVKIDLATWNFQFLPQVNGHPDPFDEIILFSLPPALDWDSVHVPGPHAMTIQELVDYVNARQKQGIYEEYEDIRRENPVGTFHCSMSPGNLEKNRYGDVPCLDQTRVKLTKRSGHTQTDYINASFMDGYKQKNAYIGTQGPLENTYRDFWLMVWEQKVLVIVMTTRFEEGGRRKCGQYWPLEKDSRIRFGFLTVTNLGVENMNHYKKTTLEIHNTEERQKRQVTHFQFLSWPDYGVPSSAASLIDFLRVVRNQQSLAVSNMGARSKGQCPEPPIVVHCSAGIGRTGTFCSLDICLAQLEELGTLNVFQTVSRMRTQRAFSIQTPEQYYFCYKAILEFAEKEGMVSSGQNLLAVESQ
Procedure: as §1

| IC50 (TCPTP; pNPP substrate, pH 6.0, 37°C 30 min, read-out: IC50 TCPTP) | IC50 (PTP1B) | IC50 (PTP-MEG2) | IC50 (TCPTP) | Compound |
| --- | --- | --- | --- | --- |
| > 25 µM | > 25 µM | 4.3 µM | – | O=C(CCCSc1nc2ccccc2s1)Nc1cccc2ccccc12 [Compound 4b, 4-(benzo[d]thiazol-2-ylthio)-N-(naphthalen-1-yl)butanamide] |
| – | > 25 µM | 3.2 µM | > 25 µM | O=C(CSc1nc2ccccc2s1)Nc1cccc2ccccc12 [Compound 4a, 2-(benzo[d]thiazol-2-ylthio)-N-(naphthalen-1-yl)acetamide] |
